This note sets out measurements from ChEMBL document CHEMBL3390848, “Affinity selection and sequence-activity relationships of HIV-1 membrane fusion inhibitors directed at the drug-resistant variants” (Medchemcomm, 2010).

Broadly, the EC50 is the concentration giving half of the maximal effect. Broadly, the Tm is the temperature at the midpoint of the melting transition.

Assay [1] has as its system Human immunodeficiency virus 1. The experiment in a line: Binding affinity to HIV1 His-tagged N-terminal heptad repeat of envelope glycoprotein gp41 assessed as recovery of N36-drug complex after 2 hrs by LC-MS analysis. Also on record: concentration or dose not given beside the values.
Assay [2] has as its system Human immunodeficiency virus 1. Briefly: Antiviral activity against HIV1 NL4-3 harboring gp41 D36G mutant infected in human HeLa cells expressing CD4-LTR-beta-gal assessed as inhibition of viral replication after 48 hrs by MAGI assay. It is filed as functional, organism-based.
The subject of assay [3] is Human immunodeficiency virus 1. Briefly: Thermal stability of HIV1 envelope glycoprotein gp41 His-tagged N-terminal heptad repeat N36-drug complex assessed as thermal unfolding transition state by measuring molar ellipticity at 4 to 90 degC by circular dichroic spectra analysis.

Residues, ends and D or L forms follow the SMILES beside them.

Turning to `CC[C@H](C)[C@H](NC(=O)[C@H](CC(C)C)NC(=O)[C@H](CCC(=O)O)NC(=O)[C@H](CCC(=O)O)NC(=O)[C@@H](NC(=O)[C@H](CCCCN)NC(=O)[C@H](CCCCN)NC(=O)[C@@H](NC(=O)[C@H](Cc1ccc(O)cc1)NC(=O)[C@H](CCC(=O)O)NC(=O)[C@H](CCC(=O)O)NC(=O)[C@@H](NC(=O)[C@H](CCCCN)NC(=O)[C@H](CCCCN)NC(=O)[C@H](CC(=O)O)NC(=O)[C@H](Cc1c[nH]c2ccccc12)NC(=O)[C@H](CCC(=O)O)NC(=O)[C@H](CCC(=O)O)NC(=O)[C@H](Cc1c[nH]c2ccccc12)NC(C)=O)[C@@H](C)CC)[C@@H](C)O)[C@@H](C)CC)C(=O)N[C@@H](CCCCN)C(=O)N[C@@H](CCCCN)C(=O)N[C@@H](CO)C(=O)N[C@@H](CCC(=O)O)C(=O)N[C@@H](CCC(=O)O)C(=O)N[C@@H](CCCNC(=N)N)C(=O)N[C@@H](CCC(N)=O)C(=O)N[C@@H](CCCCN)C(=O)N[C@@H](CCCCN)C(=O)N[C@@H](CC(N)=O)C(=O)N[C@@H](CCC(=O)O)C(=O)N[C@@H](CCC(=O)O)C(=O)N[C@@H](CCC(=O)O)C(=O)N[C@@H](CC(C)C)C(=O)N[C@@H](CCCCN)C(=O)N[C@@H](CCCCN)C(N)=O` (Ac-WEEWDKKIEEYTKKIEELIKKSEERQKKNEEELKK-NH2), in assay [1], the Activity was 7.6%. Moreover, the EC50 in assay [2] was determined as 2.5 nM. Also, the melting temperature (Tm) in assay [3] stood at 71.5 °C.

Regarding `CC[C@H](C)[C@H](NC(=O)[C@H](CC(C)C)NC(=O)[C@H](CCC(=O)O)NC(=O)[C@H](CCC(=O)O)NC(=O)[C@@H](NC(=O)[C@H](CCCCN)NC(=O)[C@H](CCCCN)NC(=O)[C@@H](NC(=O)[C@H](Cc1ccc(O)cc1)NC(=O)[C@H](CCC(=O)O)NC(=O)[C@H](CCC(=O)O)NC(=O)[C@@H](NC(=O)[C@H](CCCCN)NC(=O)[C@H](CCCCN)NC(=O)[C@H](CC(=O)O)NC(=O)[C@H](Cc1c[nH]c2ccccc12)NC(=O)[C@H](CCC(=O)O)NC(=O)[C@H](CCC(=O)O)NC(=O)[C@H](Cc1c[nH]c2ccccc12)NC(C)=O)[C@@H](C)CC)[C@@H](C)O)[C@@H](C)CC)C(=O)N[C@@H](CCCCN)C(=O)N[C@@H](CCCCN)C(=O)N[C@@H](CO)C(=O)N[C@@H](CCC(=O)O)C(=O)N[C@@H](CCC(=O)O)C(=O)N[C@@H](CO)C(=O)N[C@@H](CCC(N)=O)C(=O)N[C@@H](CCCCN)C(=O)N[C@@H](CCCCN)C(=O)N[C@@H](CC(N)=O)C(=O)N[C@@H](CCC(=O)O)C(=O)N[C@@H](CCC(=O)O)C(=O)N[C@@H](CCC(=O)O)C(=O)N[C@@H](CC(C)C)C(=O)N[C@@H](CCCCN)C(=O)N[C@@H](CCCCN)C(N)=O` (Ac-WEEWDKKIEEYTKKIEELIKKSEESQKKNEEELKK-NH2), the Activity in assay [1] is 4%. The EC50 in assay [2] amounted to 2.5 nM. For the same molecule, the Tm in assay [3] was found to be 72.4 °C.

In the case of `CC[C@H](C)[C@H](NC(=O)[C@H](CC(C)C)NC(=O)[C@H](CCC(=O)O)NC(=O)[C@H](CCC(=O)O)NC(=O)[C@@H](NC(=O)[C@H](CCCCN)NC(=O)[C@H](CCCCN)NC(=O)[C@@H](NC(=O)[C@H](Cc1ccc(O)cc1)NC(=O)[C@H](CCC(=O)O)NC(=O)[C@H](CCC(=O)O)NC(=O)[C@@H](NC(=O)[C@H](CCCCN)NC(=O)[C@H](CCCCN)NC(=O)[C@H](CC(=O)O)NC(=O)[C@H](Cc1c[nH]c2ccccc12)NC(=O)[C@H](CCC(=O)O)NC(=O)[C@H](CCC(=O)O)NC(=O)[C@H](Cc1c[nH]c2ccccc12)NC(C)=O)[C@@H](C)CC)[C@@H](C)O)[C@@H](C)CC)C(=O)N[C@@H](CCCCN)C(=O)N[C@@H](CCCCN)C(=O)N[C@@H](CO)C(=O)N[C@@H](CCC(=O)O)C(=O)N[C@@H](CCC(=O)O)C(=O)N[C@H](C(=O)N[C@@H](CCC(N)=O)C(=O)N[C@@H](CCCCN)C(=O)N[C@@H](CCCCN)C(=O)N[C@@H](CC(N)=O)C(=O)N[C@@H](CCC(=O)O)C(=O)N[C@@H](CCC(=O)O)C(=O)N[C@@H](CCC(=O)O)C(=O)N[C@@H](CC(C)C)C(=O)N[C@@H](CCCCN)C(=O)N[C@@H](CCCCN)C(N)=O)[C@@H](C)O` (Ac-WEEWDKKIEEYTKKIEELIKKSEETQKKNEEELKK-NH2), in assay [1], the Activity was 7.3%. For the same molecule, in assay [2], the EC50 worked out at 3.2 nM. In addition, in assay [3], the Tm was found to be 76.7 °C.

As to `CC[C@H](C)[C@H](NC(=O)[C@H](CC(C)C)NC(=O)[C@H](CCC(=O)O)NC(=O)[C@H](CCC(=O)O)NC(=O)[C@@H](NC(=O)[C@H](CCCCN)NC(=O)[C@H](CCCCN)NC(=O)[C@@H](NC(=O)[C@H](Cc1ccc(O)cc1)NC(=O)[C@H](CCC(=O)O)NC(=O)[C@H](CCC(=O)O)NC(=O)[C@@H](NC(=O)[C@H](CCCCN)NC(=O)[C@H](CCCCN)NC(=O)[C@H](CC(=O)O)NC(=O)[C@H](Cc1c[nH]c2ccccc12)NC(=O)[C@H](CCC(=O)O)NC(=O)[C@H](CCC(=O)O)NC(=O)[C@H](Cc1c[nH]c2ccccc12)NC(C)=O)[C@@H](C)CC)[C@@H](C)O)[C@@H](C)CC)C(=O)N[C@@H](CCCCN)C(=O)N[C@@H](CCCCN)C(=O)N[C@@H](CO)C(=O)N[C@@H](CCC(=O)O)C(=O)N[C@@H](CCC(=O)O)C(=O)N[C@H](C(=O)N[C@@H](CCC(N)=O)C(=O)N[C@@H](CCCCN)C(=O)N[C@@H](CCCCN)C(=O)N[C@@H](CC(N)=O)C(=O)N[C@@H](CCC(=O)O)C(=O)N[C@@H](CCC(=O)O)C(=O)N[C@@H](CCC(=O)O)C(=O)N[C@@H](CC(C)C)C(=O)N[C@@H](CCCCN)C(=O)N[C@@H](CCCCN)C(N)=O)C(C)C` (Ac-WEEWDKKIEEYTKKIEELIKKSEEVQKKNEEELKK-NH2), the Activity in assay [1] is 6.2%. The EC50 in assay [2] is 2.2 nM. Besides, the midpoint of thermal melting (Tm) in assay [3] is 77.7 °C.

Regarding `CC[C@H](C)[C@H](NC(=O)[C@H](CC(C)C)NC(=O)[C@H](CCC(=O)O)NC(=O)[C@H](CCC(=O)O)NC(=O)[C@@H](NC(=O)[C@H](CCCCN)NC(=O)[C@H](CCCCN)NC(=O)[C@@H](NC(=O)[C@H](Cc1ccc(O)cc1)NC(=O)[C@H](CCC(=O)O)NC(=O)[C@H](CCC(=O)O)NC(=O)[C@@H](NC(=O)[C@H](CCCCN)NC(=O)[C@H](CCCCN)NC(=O)[C@H](CC(=O)O)NC(=O)[C@H](Cc1c[nH]c2ccccc12)NC(=O)[C@H](CCC(=O)O)NC(=O)[C@H](CCC(=O)O)NC(=O)[C@H](Cc1c[nH]c2ccccc12)NC(C)=O)[C@@H](C)CC)[C@@H](C)O)[C@@H](C)CC)C(=O)N[C@@H](CCCCN)C(=O)N[C@@H](CCCCN)C(=O)N[C@@H](CO)C(=O)N[C@@H](CCC(=O)O)C(=O)N[C@@H](CCC(=O)O)C(=O)N[C@@H](Cc1c[nH]c2ccccc12)C(=O)N[C@@H](CCC(N)=O)C(=O)N[C@@H](CCCCN)C(=O)N[C@@H](CCCCN)C(=O)N[C@@H](CC(N)=O)C(=O)N[C@@H](CCC(=O)O)C(=O)N[C@@H](CCC(=O)O)C(=O)N[C@@H](CCC(=O)O)C(=O)N[C@@H](CC(C)C)C(=O)N[C@@H](CCCCN)C(=O)N[C@@H](CCCCN)C(N)=O` (Ac-WEEWDKKIEEYTKKIEELIKKSEEWQKKNEEELKK-NH2), the Activity in assay [1] was 7.1%. Also, the half-maximal effective concentration (EC50) in assay [2] was determined as 1.7 nM. In assay [3], the Tm amounted to 77.1 °C.
